Results as given in paper PMC8317212 (Journal of medicinal chemistry, 2016).
Structures can show the parent of a compound that is named as a salt. Where two headings read alike, the source gives them in different places.

How the values were obtained:
Format in all cases: cell-based
human 5-HT2C-INI = biological target: T1, human 5-HT2C-INI (Homo sapiens, UniProt P28335); assay: FLIPR calcium flux assay, 5-HT2C; settings: for EC50: read-out: EC50, nM 5-HT2C, FLIPR, HEK-293 cells stably expressing human receptor
T1 sequence (P28335 33-458): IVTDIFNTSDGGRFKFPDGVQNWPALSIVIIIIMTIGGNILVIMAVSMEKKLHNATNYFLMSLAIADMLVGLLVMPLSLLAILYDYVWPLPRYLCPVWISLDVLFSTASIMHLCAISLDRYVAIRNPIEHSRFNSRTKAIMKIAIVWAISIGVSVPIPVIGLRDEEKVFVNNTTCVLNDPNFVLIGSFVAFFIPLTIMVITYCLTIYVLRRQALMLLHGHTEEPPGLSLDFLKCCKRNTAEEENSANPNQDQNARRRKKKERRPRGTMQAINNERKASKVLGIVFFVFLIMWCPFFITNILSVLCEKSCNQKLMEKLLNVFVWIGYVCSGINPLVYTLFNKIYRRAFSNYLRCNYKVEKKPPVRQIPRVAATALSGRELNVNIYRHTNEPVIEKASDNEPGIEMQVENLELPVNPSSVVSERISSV

human 5-HT2B = human 5-HT2B (Homo sapiens, UniProt P41595); assay: FLIPR calcium flux assay, 5-HT2B; settings: for Emax 5-HT2B: HEK-293 cells stably expressing human receptor
human 5-HT2A = human 5-HT2A (Homo sapiens, UniProt P28223); assay: FLIPR calcium flux assay, 5-HT2A
[1] = EC50, nM 5-HT2B, FLIPR, HEK-293 cells, NA = no activity (Emax < 15%) at 10 μM

Chain of human 5-HT2A (P28223 whole entry): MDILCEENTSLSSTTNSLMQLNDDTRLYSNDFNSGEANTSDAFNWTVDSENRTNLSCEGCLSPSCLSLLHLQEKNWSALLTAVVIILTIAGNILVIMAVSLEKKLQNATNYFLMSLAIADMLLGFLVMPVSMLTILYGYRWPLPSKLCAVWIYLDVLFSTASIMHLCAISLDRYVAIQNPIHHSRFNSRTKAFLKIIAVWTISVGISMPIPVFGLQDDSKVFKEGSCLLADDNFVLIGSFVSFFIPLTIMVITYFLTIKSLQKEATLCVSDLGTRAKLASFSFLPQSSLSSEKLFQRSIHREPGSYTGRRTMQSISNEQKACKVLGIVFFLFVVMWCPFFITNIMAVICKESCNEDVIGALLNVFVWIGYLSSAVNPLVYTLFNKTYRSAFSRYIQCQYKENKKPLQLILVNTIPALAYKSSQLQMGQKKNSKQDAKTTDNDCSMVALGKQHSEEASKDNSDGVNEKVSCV
Chain of human 5-HT2B (P41595 whole entry): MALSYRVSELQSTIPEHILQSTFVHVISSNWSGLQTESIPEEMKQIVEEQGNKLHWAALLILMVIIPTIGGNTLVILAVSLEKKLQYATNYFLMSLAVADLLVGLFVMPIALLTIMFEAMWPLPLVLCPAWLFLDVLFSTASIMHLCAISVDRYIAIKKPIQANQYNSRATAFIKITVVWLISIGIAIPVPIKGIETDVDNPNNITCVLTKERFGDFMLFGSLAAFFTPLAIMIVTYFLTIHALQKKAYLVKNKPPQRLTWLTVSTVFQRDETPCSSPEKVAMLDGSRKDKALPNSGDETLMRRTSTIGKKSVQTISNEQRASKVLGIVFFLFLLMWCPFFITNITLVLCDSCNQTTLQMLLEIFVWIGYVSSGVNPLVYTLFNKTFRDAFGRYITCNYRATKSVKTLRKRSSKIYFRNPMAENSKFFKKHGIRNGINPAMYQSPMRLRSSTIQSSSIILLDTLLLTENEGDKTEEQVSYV

Row | Structure (SMILES) | EC50 (human 5-HT2C-INI) | EC50, nM 5-HT2A (human 5-HT2A) | further results
1 | NCC1CC1c1cc(Cl)c(F)cc1OCCF (single isomer, unassigned; (+)) [(+)-21c, (+)-[2-[5-Chloro-4-fluoro-2-(2-fluoroethoxy)phenyl]cyclopropyl]methanamine Hydrochloride] | 24 nM |  | EC50 (human 5-HT2B; read-out: EC50, nM 5-HT2B): 506 nM
2 | NCC1CC1c1c(OCCF)ccc(F)c1F (single isomer, unassigned; (+)) [(+)-21b, (+)-[2-[2,3-Difluoro-6-(2-fluoroethoxy)phenyl]cyclopropyl]methanamine Hydrochloride] | 25 nM |  | 
3 | NCC1CC1c1c(OCCF)ccc(F)c1Cl (single isomer, unassigned; (+)) [(+)-21g, (+)-[2-[2-Chloro-3-fluoro-6-(2-fluoroethoxy)phenyl]cyclopropyl]methanamine Hydrochloride] | 49 nM |  | 
4 | Cl.NCC1CC1c1c(OCCF)ccc(F)c1Cl (single isomer, unassigned; (-)) [(–)-21g, (–)-[2-[2-Chloro-3-fluoro-6-(2-fluoroethoxy)phenyl]cyclopropyl]methanamine Hydrochloride] |  | NA (no activity (Emax < 15%) at 10 μM) | Emax 5-HT2B (human 5-HT2B; FLIPR): 29%
5 | COc1ccc(Cl)c(Cl)c1C1CC1CN.Cl (single isomer, unassigned; (+)) [(+)-20f, (+)-[2-(2,3-Dichloro-6-methoxyphenyl)cyclopropyl]methanamine Hydrochloride] |  |  | fold weaker at 5-HT2C than its enantiomer (human 5-HT2C-INI; compared to the (–)-enantiomer): 20 fold; Emax 5-HT2A (human 5-HT2A; FLIPR, HEK-293 cells stably expressing human receptor): 76%; Emax 5-HT2B (human 5-HT2B; FLIPR): 46%
6 | Cl.NCC1CC1c1c(OCCF)ccc(Cl)c1Cl (single isomer, unassigned; (+)) [(+)-21f, (+)-[2-[2,3-Dichloro-6-(2-fluoroethoxy)phenyl]cyclopropyl]methanamine Hydrochloride] |  |  | Emax 5-HT2B (human 5-HT2B; FLIPR): 99%
7 | C=CCOc1ccc(Cl)c(F)c1C1CC1CN.Cl (single isomer, unassigned; (-)) [(–)-22d, (–)-[2-[6-(Allyloxy)-3-chloro-2-fluorophenyl]cyclopropyl]methanamine Hydrochloride] |  |  | EC50, nM 5-HT2B (human 5-HT2B): NA (no activity (Emax < 15%) at 10 μM)
8 | COc1ccc(F)c(Cl)c1C1CC1CN.Cl (single isomer, unassigned; (+)) [(+)-20g, (+)-[2-(2-Chloro-3-fluoro-6-methoxyphenyl)cyclopropyl]methanamine Hydrochloride] |  |  | Emax 5-HT2B (human 5-HT2B; FLIPR): 60%
9 | C=CCOc1ccc(F)c(Cl)c1C1CC1CN.Cl (single isomer, unassigned; (+)) [(+)-22g, (+)-[2-[6-(Allyloxy)-2-chloro-3-fluorophenyl]cyclopropyl]methanamine Hydrochloride] |  | NA (no activity (Emax < 15%) at 10 μM) | 
10 | Cl.NCC1CC1c1cc(F)c(F)cc1OCCF (single isomer, unassigned; (-)) [(–)-21a, (–)-[2-[4,5-Difluoro-2-(2-fluoroethoxy)phenyl]cyclopropyl]methanamine Hydrochloride] |  | NA (no activity (Emax < 15%) at 10 μM) | EC50, nM 5-HT2B (human 5-HT2B): NA (no activity (Emax < 15%) at 10 μM)
11 | COc1ccc(Cl)c(Cl)c1C1CC1CN.Cl (single isomer, unassigned; (-)) [(–)-20f, (–)-[2-(2,3-Dichloro-6-methoxyphenyl)cyclopropyl]methanamine Hydrochloride] |  |  | selectivity over 5-HT2B (human 5-HT2B; 5-HT2C vs 5-HT2B): 50 fold
12 | C=CCOc1ccc(Cl)c(F)c1C1CC1CN.Cl (single isomer, unassigned; (+)) [(+)-22d, (+)-[2-[6-(Allyloxy)-3-chloro-2-fluorophenyl]cyclopropyl]methanamine Hydrochloride] | 116 nM | NA (no activity (Emax < 15%) at 10 μM) | 
13 | Cl.NCC1CC1c1cc(Cl)c(F)cc1OCCF (single isomer, unassigned; (-)) [(–)-21c, (–)-[2-[5-Chloro-4-fluoro-2-(2-fluoroethoxy)phenyl]cyclopropyl]methanamine Hydrochloride] |  | NA (no activity (Emax < 15%) at 10 μM) | 
14 | C=CCOc1ccc(F)c(Cl)c1C1CC1CN.Cl (single isomer, unassigned; (-)) [(–)-22g, (–)-[2-[6-(Allyloxy)-2-chloro-3-fluorophenyl]cyclopropyl]methanamine Hydrochloride] |  | NA (no activity (Emax < 15%) at 10 μM) | 
15 | C=CCOc1ccc(F)c(F)c1C1CC1CN.Cl (single isomer, unassigned; (+)) [(+)-22b, (+)-[2-[6-(Allyloxy)-2,3-difluorophenyl]cyclopropyl]methanamine hydrochloride] | 36 nM | NA (no activity (Emax < 15%) at 10 μM) | EC50 (human 5-HT2B; read-out: EC50, nM 5-HT2B): 3340 nM
16 | Cl.NCC1CC1c1c(OCCF)ccc(Cl)c1F (single isomer, unassigned; (+)) [(+)-21d, (+)-[2-[3-Chloro-2-fluoro-6-(2-fluoroethoxy)phenyl]cyclopropyl]methanamine Hydrochloride] | 71 nM |  | EC50, nM 5-HT2B (human 5-HT2B): NA (no activity (Emax < 15%) at 10 μM)
17 | C=CCOc1cc(F)c(Cl)cc1C1CC1CN.Cl (single isomer, unassigned; (-)) [(–)-22c, (–)-[2-[2-(Allyloxy)-5-chloro-4-fluorophenyl]cyclopropyl]methanamine Hydrochloride] |  | NA (no activity (Emax < 15%) at 10 μM) | 
18 | C=CCOc1cc(F)c(Cl)cc1C1CC1CN.Cl (single isomer, unassigned; (+)) [(+)-22c, (+)-[2-[2-(Allyloxy)-5-chloro-4-fluorophenyl]cyclopropyl]methanamine Hydrochloride] | 42 nM |  | Emax 5-HT2B (human 5-HT2B; FLIPR): 44%
19 | Cl.NCC1CC1c1cc(Cl)c(Cl)cc1OCCF (single isomer, unassigned; (-)) [(–)-21e, (–)-[2-[4,5-Dichloro-2-(2-fluoroethoxy)phenyl]cyclopropyl]methanamine Hydrochloride] |  | NA (no activity (Emax < 15%) at 10 μM) | EC50, nM 5-HT2B (human 5-HT2B): NA (no activity (Emax < 15%) at 10 μM)
20 | Cl.NCC1CC1c1c(OCCF)ccc(F)c1F (single isomer, unassigned; (-)) [(–)-21b, (–)-[2-[2,3-Difluoro-6-(2-fluoroethoxy)phenyl]cyclopropyl]methanamine Hydrochloride] |  | NA (no activity (Emax < 15%) at 10 μM) | 
21 | C=CCOc1ccc(F)c(F)c1C1CC1CN.Cl (single isomer, unassigned; (-)) [(–)-22b, (–)-[2-[6-(Allyloxy)-2,3-difluorophenyl]cyclopropyl]methanamine hydrochloride] |  | NA (no activity (Emax < 15%) at 10 μM) | 
22 | Cl.NCC1CC1c1c(OCCF)ccc(Cl)c1F (single isomer, unassigned; (-)) [(–)-21d, (–)-[2-[3-Chloro-2-fluoro-6-(2-fluoroethoxy)phenyl]cyclopropyl]methanamine Hydrochloride] |  | NA (no activity (Emax < 15%) at 10 μM) | EC50, nM 5-HT2B (human 5-HT2B): NA (no activity (Emax < 15%) at 10 μM)
23 | C=CCOc1cc(Cl)c(Cl)cc1C1CC1CN.Cl (single isomer, unassigned; (-)) [(–)-22e, (–)-[2-[2-(Allyloxy)-4,5-dichlorophenyl]cyclopropyl]methanamine Hydrochloride] |  | NA (no activity (Emax < 15%) at 10 μM) | EC50, nM 5-HT2B (human 5-HT2B): NA (no activity (Emax < 15%) at 10 μM)
24 | NCC1CC1c1cc(Cl)c(Cl)cc1OCCF (single isomer, unassigned; (+)) [(+)-21e, (+)-[2-[4,5-Dichloro-2-(2-fluoroethoxy)phenyl]cyclopropyl]methanamine Hydrochloride] | 18 nM |  | EC50 (human 5-HT2B; [1]): > 10000 nM
25 | Cl.NCC1CC1c1c(OCCF)ccc(Cl)c1Cl (single isomer, unassigned; (-)) [(–)-21f, (–)-[2-[2,3-Dichloro-6-(2-fluoroethoxy)phenyl]cyclopropyl]methanamine Hydrochloride] |  | NA (no activity (Emax < 15%) at 10 μM) | EC50 (human 5-HT2B; [1]): > 10000 nM; Emax 5-HT2B (human 5-HT2B; FLIPR): 62%
26 | NCC1CC1c1cc(F)c(F)cc1OCCF (single isomer, unassigned; (+)) [(+)-21a, (+)-[2-[4,5-Difluoro-2-(2-fluoroethoxy)phenyl]cyclopropyl]methanamine Hydrochloride] | 7.3 nM |  | 
27 | C=CCOc1cc(Cl)c(Cl)cc1C1CC1CN (single isomer, unassigned; (+)) [(+)-22e, (+)-[2-[2-(Allyloxy)-4,5-dichlorophenyl]cyclopropyl]methanamine Hydrochloride] | 61 nM |  | 
28 | C=CCOc1ccc(Cl)c(Cl)c1C1CC1CN.Cl (single isomer, unassigned; (+)) [(+)-22f, (+)-[2-[6-(Allyloxy)-2,3-dichlorophenyl]cyclopropyl]methanamine Hydrochloride] |  | NA (no activity (Emax < 15%) at 10 μM) | EC50, nM 5-HT2B (human 5-HT2B): NA (no activity (Emax < 15%) at 10 μM)
